# ChEMBL document CHEMBL1201862, “PubChem BioAssay data set” (2004)
#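 The compound was tested at five concentrations on cells cultured in 96-well plates, with a 48-hour exposure period. Here, GI50 denotes the concentration required for 50% inhibition of growth.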 Calls of active or inactive are those of the source. No stated cut-off is given here; in the data, active = GI50 up to about 1.1 µM and inactive = higher.
# Columns and labels:
# Assay in all cases: NCI-60 cell line screen, 48 h
# Malme-3M = system: Malme-3M
# A549 = system: A549
# MOLT-4 = system: MOLT-4
# SN12C = system: SN12C
# SNB-75 = system: SNB-75
# OVCAR-4 = system: OVCAR-4
# UACC-257 = system: UACC-257
# SR = system: SR
# U-251 = system: U-251
# UO-31 = system: UO-31
# SNB-19 = system: SNB-19
# DLD-1 = system: DLD-1
# NCI-H226 = system: NCI-H226
# COLO 205 = system: COLO 205
# NCI-H522 = system: NCI-H522
# HL-60 = system: HL-60
# HOP-92 = system: HOP-92
# DMS-273 = system: DMS-273
# SF-268 = system: SF-268
# TK-10 = system: TK-10
# SW-620 = system: SW-620
# 786-0 = system: 786-0
# SNB-78 = system: SNB-78
# CAKI-1 = system: CAKI-1
# HCT-116 = system: HCT-116
# RXF 393 = system: RXF 393
# SK-MEL-28 = system: SK-MEL-28
# M14 = system: M14
# ACHN = system: ACHN
# OVCAR-5 = system: OVCAR-5
# HOP-18 = system: HOP-18
# OVCAR-8 = system: OVCAR-8
# NCI-H460 = system: NCI-H460
# IGROV-1 = system: IGROV-1
# LXFL 529 = system: LXFL 529
# RXF 631 = system: RXF 631
# HCC 2998 = system: HCC 2998
# M19-MEL = system: M19-MEL
# A498 = system: A498
# LOX IMVI = system: LOX IMVI
# HCT-15 = system: HCT-15
# SK-OV-3 = system: SK-OV-3
# HT-29 = system: HT-29
# DMS-114 = system: DMS-114
# HOP-62 = system: HOP-62
# KM12 = system: KM12
# EKVX = system: EKVX
# SK-MEL-5 = system: SK-MEL-5
# KM-20L2 = system: KM-20L2
# UACC-62 = system: UACC-62
# RPMI-8226 = system: RPMI-8226
# OVCAR-3 = system: OVCAR-3
# SF-539 = system: SF-539
# CCRF-CEM = system: CCRF-CEM
# SF-295 = system: SF-295
# K562 = system: K562
# XF498 = system: XF498
# NCI-H23 = system: NCI-H23
# SK-MEL-2 = system: SK-MEL-2
structure (smiles),measurement,setting,value
CC1=C2CC[C@@]3(C)C(=CCC3O)C2(C)CCC1=O (stereo partly drawn),GI50,Malme-3M,> 100 µM (inactive)
same,GI50,A549,> 100 µM (inactive)
same,GI50,MOLT-4,> 100 µM (inactive)
same,GI50,SN12C,> 100 µM (inactive)
same,GI50,SNB-75,83 µM (inactive)
same,GI50,OVCAR-4,> 100 µM (inactive)
same,GI50,UACC-257,> 100 µM (inactive)
same,GI50,SR,> 100 µM (inactive)
same,GI50,U-251,> 100 µM (inactive)
same,GI50,UO-31,> 100 µM (inactive)
same,GI50,SNB-19,> 100 µM (inactive)
same,GI50,DLD-1,> 100 µM (inactive)
same,GI50,NCI-H226,> 100 µM (inactive)
same,GI50,COLO 205,> 100 µM (inactive)
same,GI50,NCI-H522,> 100 µM (inactive)
same,GI50,HL-60,> 100 µM (inactive)
same,GI50,HOP-92,> 100 µM (inactive)
same,GI50,DMS-273,> 100 µM (inactive)
same,GI50,SF-268,> 100 µM (inactive)
same,GI50,TK-10,> 100 µM (inactive)
same,GI50,SW-620,> 100 µM (inactive)
same,GI50,786-0,> 100 µM (inactive)
same,GI50,SNB-78,> 100 µM (inactive)
same,GI50,CAKI-1,> 100 µM (inactive)
same,GI50,HCT-116,> 100 µM (inactive)
same,GI50,RXF 393,> 100 µM (inactive)
same,GI50,SK-MEL-28,> 100 µM (inactive)
same,GI50,M14,> 100 µM (inactive)
same,GI50,ACHN,> 100 µM (inactive)
same,GI50,OVCAR-5,> 100 µM (inactive)
same,GI50,HOP-18,> 100 µM (inactive)
same,GI50,OVCAR-8,> 100 µM (inactive)
same,GI50,NCI-H460,> 100 µM (inactive)
same,GI50,IGROV-1,> 100 µM (inactive)
same,GI50,LXFL 529,> 100 µM (inactive)
same,GI50,RXF 631,> 100 µM (inactive)
same,GI50,HCC 2998,> 100 µM (inactive)
same,GI50,M19-MEL,> 100 µM (inactive)
same,GI50,A498,91.6 µM (inactive)
same,GI50,LOX IMVI,> 100 µM (inactive)
same,GI50,HCT-15,> 100 µM
same,GI50,SK-OV-3,> 100 µM (inactive)
same,GI50,HT-29,> 100 µM (inactive)
same,GI50,DMS-114,> 100 µM (inactive)
same,GI50,HOP-62,> 100 µM (inactive)
same,GI50,KM12,> 100 µM (inactive)
same,GI50,EKVX,27.1 µM (inactive)
same,GI50,SK-MEL-5,> 100 µM (inactive)
same,GI50,KM-20L2,> 100 µM (inactive)
same,GI50,UACC-62,56.4 µM (inactive)
same,GI50,RPMI-8226,> 100 µM (inactive)
same,GI50,OVCAR-3,> 100 µM (inactive)
same,GI50,SF-539,> 100 µM (inactive)
same,GI50,CCRF-CEM,> 100 µM (inactive)
same,GI50,SF-295,> 100 µM (inactive)
COC1OC(CO)C(O)C(O)C1Br (stereo not drawn),GI50,Malme-3M,> 100 µM (inactive)
same,GI50,A549,> 100 µM (inactive)
same,GI50,MOLT-4,> 100 µM (inactive)
same,GI50,SN12C,> 100 µM (inactive)
same,GI50,K562,> 100 µM (inactive)
same,GI50,OVCAR-4,> 100 µM (inactive)
same,GI50,UACC-257,> 100 µM (inactive)
same,GI50,SR,> 100 µM (inactive)
same,GI50,U-251,> 100 µM (inactive)
same,GI50,XF498,> 100 µM (inactive)
same,GI50,SNB-19,> 100 µM (inactive)
same,GI50,DLD-1,> 100 µM (inactive)
same,GI50,NCI-H23,> 100 µM (inactive)
same,GI50,COLO 205,> 100 µM (inactive)
same,GI50,NCI-H522,> 100 µM (inactive)
same,GI50,HL-60,> 100 µM (inactive)
same,GI50,HOP-92,> 100 µM (inactive)
same,GI50,DMS-273,> 100 µM (inactive)
same,GI50,SF-268,> 100 µM (inactive)
same,GI50,TK-10,> 100 µM (inactive)
same,GI50,SW-620,> 100 µM (inactive)
same,GI50,786-0,> 100 µM (inactive)
same,GI50,SNB-78,> 100 µM (inactive)
same,GI50,CAKI-1,> 100 µM (inactive)
same,GI50,HCT-116,> 100 µM (inactive)
same,GI50,RXF 393,> 100 µM (inactive)
same,GI50,SK-MEL-28,> 100 µM (inactive)
same,GI50,M14,> 100 µM (inactive)
same,GI50,ACHN,> 100 µM (inactive)
same,GI50,OVCAR-5,> 100 µM (inactive)
same,GI50,HOP-18,> 100 µM (inactive)
same,GI50,OVCAR-8,> 100 µM (inactive)
same,GI50,NCI-H460,> 100 µM (inactive)
same,GI50,IGROV-1,> 100 µM (inactive)
same,GI50,LXFL 529,> 100 µM (inactive)
same,GI50,RXF 631,> 100 µM (inactive)
same,GI50,HCC 2998,> 100 µM (inactive)
same,GI50,M19-MEL,> 100 µM (inactive)
same,GI50,A498,> 100 µM (inactive)
same,GI50,LOX IMVI,> 100 µM (inactive)
same,GI50,HCT-15,> 100 µM
same,GI50,HT-29,> 100 µM (inactive)
same,GI50,HOP-62,> 100 µM (inactive)
same,GI50,KM12,> 100 µM (inactive)
same,GI50,SK-MEL-5,> 100 µM (inactive)
same,GI50,KM-20L2,> 100 µM (inactive)
same,GI50,UACC-62,> 100 µM (inactive)
same,GI50,RPMI-8226,> 100 µM (inactive)
same,GI50,OVCAR-3,> 100 µM (inactive)
same,GI50,SF-539,> 100 µM (inactive)
same,GI50,CCRF-CEM,> 100 µM (inactive)
same,GI50,SF-295,> 100 µM (inactive)
COC(=O)CC1CCN(C#N)CC1CC[N+](=O)[O-] (stereo not drawn),GI50,Malme-3M,> 100 µM (inactive)
same,GI50,A549,> 100 µM (inactive)
same,GI50,MOLT-4,> 100 µM (inactive)
same,GI50,SN12C,> 100 µM (inactive)
same,GI50,SNB-75,> 100 µM (inactive)
same,GI50,K562,> 100 µM (inactive)
same,GI50,OVCAR-4,> 100 µM (inactive)
same,GI50,UACC-257,> 100 µM (inactive)
same,GI50,SR,> 100 µM (inactive)
same,GI50,U-251,> 100 µM (inactive)
same,GI50,UO-31,> 100 µM (inactive)
same,GI50,SNB-19,> 100 µM (inactive)
same,GI50,DLD-1,> 100 µM (inactive)
same,GI50,NCI-H226,> 100 µM (inactive)
same,GI50,COLO 205,> 100 µM (inactive)
same,GI50,NCI-H522,> 100 µM (inactive)
same,GI50,HL-60,> 100 µM (inactive)
same,GI50,DMS-273,> 100 µM (inactive)
same,GI50,SF-268,> 100 µM (inactive)
same,GI50,TK-10,> 100 µM (inactive)
same,GI50,SW-620,> 100 µM (inactive)
same,GI50,786-0,> 100 µM (inactive)
same,GI50,SNB-78,> 100 µM (inactive)
same,GI50,CAKI-1,> 100 µM (inactive)
same,GI50,HCT-116,> 100 µM (inactive)
same,GI50,RXF 393,> 100 µM (inactive)
same,GI50,SK-MEL-28,> 100 µM (inactive)
same,GI50,M14,> 100 µM (inactive)
same,GI50,ACHN,> 100 µM (inactive)
same,GI50,SK-MEL-2,> 100 µM (inactive)
same,GI50,HOP-18,> 100 µM (inactive)
same,GI50,OVCAR-8,> 100 µM (inactive)
same,GI50,NCI-H460,> 100 µM (inactive)
same,GI50,IGROV-1,> 100 µM (inactive)
same,GI50,LXFL 529,> 100 µM (inactive)
same,GI50,RXF 631,> 100 µM (inactive)
same,GI50,HCC 2998,> 100 µM (inactive)
same,GI50,M19-MEL,> 100 µM (inactive)
same,GI50,A498,> 100 µM (inactive)
same,GI50,HCT-15,> 100 µM
same,GI50,SK-OV-3,> 100 µM (inactive)
same,GI50,DMS-114,> 100 µM (inactive)
same,GI50,HOP-62,> 100 µM (inactive)
same,GI50,KM12,> 100 µM (inactive)
same,GI50,SK-MEL-5,> 100 µM (inactive)
same,GI50,KM-20L2,> 100 µM (inactive)
same,GI50,UACC-62,> 100 µM (inactive)
same,GI50,RPMI-8226,> 100 µM (inactive)
same,GI50,OVCAR-3,> 100 µM (inactive)
same,GI50,SF-539,> 100 µM (inactive)
same,GI50,CCRF-CEM,> 100 µM (inactive)
